Data: ChEMBL document CHEMBL5154842, “Unique Carbazole-Oxadiazole Derivatives as New Potential Antibiotics for Combating Gram-Positive and -Negative Bacteria” (J Med Chem, 2022)
Converted amounts (≈) assume the structure as drawn. The source made the active and inactive calls. No cut-off for these calls is given here.

Legend:
Staphylococcus aureus [1] = test: Antibacterial activity against methicillin-resistant Staphylococcus aureus N315 assessed as inhibition of bacterial growth incubated for 24 hrs by CLSI protocol based two fold serial dilution method; format: functional
Escherichia coli [2] = test: Antibacterial activity against Escherichia coli 25922 assessed as inhibition of bacterial growth incubated for 24 hrs by CLSI protocol based two fold serial dilution method; format: functional
Acinetobacter baumannii = test: Antibacterial activity against Acinetobacter baumannii assessed as inhibition of bacterial growth incubated for 24 hrs by CLSI protocol based two fold serial dilution method; format: functional
Staphylococcus aureus [3] = test: Antibacterial activity against methicillin-resistant Staphylococcus aureus N315 assessed as change in susceptibility at sub-MIC treated over 9 serial passages measured after 9 days by resistance development assay; format: functional, organism-based; conditions: time 9.0 day
Staphylococcus aureus [4] = test: Antibacterial activity against Staphylococcus aureus 25923 assessed as inhibition of bacterial growth incubated for 24 hrs by CLSI protocol based two fold serial dilution method; format: functional
Enterococcus faecalis = test: Antibacterial activity against Enterococcus faecalis assessed as inhibition of bacterial growth incubated for 24 hrs by CLSI protocol based two fold serial dilution method; format: functional
Klebsiella pneumoniae = test: Antibacterial activity against Klebsiella pneumonia assessed as inhibition of bacterial growth incubated for 24 hrs by CLSI protocol based two fold serial dilution method; format: functional
Pseudomonas aeruginosa [5] = test: Antibacterial activity against Pseudomonas aeruginosa ATCC 27853 assessed as inhibition of bacterial growth incubated for 24 hrs by CLSI protocol based two fold serial dilution method; format: functional
Staphylococcus aureus [6] = test: Antibacterial activity against Staphylococcus aureus 29213 assessed as inhibition of bacterial growth incubated for 24 hrs by CLSI protocol based two fold serial dilution method; format: functional
Escherichia coli [7] = test: Antibacterial activity against Escherichia coli assessed as inhibition of bacterial growth incubated for 24 hrs by CLSI protocol based two fold serial dilution method; format: functional
Pseudomonas aeruginosa [8] = test: Antibacterial activity against Pseudomonas aeruginosa ATCC 27853 assessed as change in susceptibility at sub-MIC treated over 9 serial passages measured after 9 days by resistance development assay; format: functional, organism-based; conditions: time 9.0 day
Staphylococcus aureus [9] = test: Antibacterial activity against Staphylococcus aureus assessed as inhibition of bacterial growth incubated for 24 hrs by CLSI protocol based two fold serial dilution method; format: functional
Pseudomonas aeruginosa [10] = test: Antibacterial activity against Pseudomonas aeruginosa assessed as inhibition of bacterial growth incubated for 24 hrs by CLSI protocol based two fold serial dilution method; format: functional
[11] = Hemolytic activity in human RBC assessed as hemolysis at 1 to 32 ug/ml measured after 60 mins by microplate reader assay relative to control; format: toxicity, cell-based, Erythrocyte; conditions: red blood cells (erythrocytes), at 1 to 32 µg/mL, dose 1-32 µg/ml, read-out: Activity
Staphylococcus aureus [12] = test: Antibacterial activity against methicillin-resistant Staphylococcus aureus N315 assessed as inhibition of bacterial growth at 0.5 to 16 ug/ml measured after 24 hrs by microplate reader assay; format: functional, organism-based; conditions: dose 0.5-16 µg/ml
Staphylococcus aureus [13] = test: Antibacterial activity against methicillin-resistant Staphylococcus aureus N315 assessed as inhibition of bacterial growth at 0.25 to 64 ug/ml incubated for 24 hrs by Alamar blue assay; format: functional, organism-based; conditions: dose 0.25-64 µg/ml

Row | Compound | MIC (Staphylococcus aureus [1]) [µg/mL] | MIC (Escherichia coli [2]) [µg/mL] | MIC (Acinetobacter baumannii) [µg/mL] | Activity (Staphylococcus aureus [3]) | MIC (Staphylococcus aureus [4]) [µg/mL] | MIC (Enterococcus faecalis) [µg/mL] | MIC (Klebsiella pneumoniae) [µg/mL] | MIC (Pseudomonas aeruginosa [5]) [µg/mL] | MIC (Staphylococcus aureus [6]) [µg/mL] | MIC (Escherichia coli [7]) [µg/mL] | Activity (Pseudomonas aeruginosa [8]) | MIC (Staphylococcus aureus [9]) [µg/mL] | MIC (Pseudomonas aeruginosa [10]) [µg/mL] | hemolysis at 1 h [11] [%] | Activity (Staphylococcus aureus [12]) | Activity (Staphylococcus aureus [13])
1 | Sc1nnc(COc2cccc3c2c2ccccc2n3CC2CCCCC2)o1 | 0.5 (≈ 1.27 µM) | 2 (≈ 5.08 µM) | 4 (≈ 10.2 µM) | Active | 8 (≈ 20.3 µM) | 4 (≈ 10.2 µM) | 2 (≈ 5.08 µM) | 1 (≈ 2.54 µM) | 16 (≈ 40.7 µM) | 4 (≈ 10.2 µM) | Active | 256 (≈ 651 µM) | 256 (≈ 651 µM) |  |  | 
2 | Sc1nnc(COc2cccc3c2c2ccccc2n3CC2CCCC2)o1 | 0.25 (≈ 0.659 µM) | 2 (≈ 5.27 µM) | 1 (≈ 2.64 µM) | Active | 1 (≈ 2.64 µM) | 2 (≈ 5.27 µM) | 1 (≈ 2.64 µM) | 0.25 (≈ 0.659 µM) | 8 (≈ 21.1 µM) | 1 (≈ 2.64 µM) | Active | 256 (≈ 675 µM) | 256 (≈ 675 µM) |  |  | 
3 | CCn1c2ccccc2c2c(OCc3nnc(S)o3)cccc21 | 2 (≈ 6.15 µM) | 8 (≈ 24.6 µM) | 8 (≈ 24.6 µM) |  | 4 (≈ 12.3 µM) | 8 (≈ 24.6 µM) | 4 (≈ 12.3 µM) | 0.5 (≈ 1.54 µM) | 8 (≈ 24.6 µM) | 8 (≈ 24.6 µM) | Active | 256 (≈ 787 µM) | 256 (≈ 787 µM) |  |  | 
4 | Sc1nnc(Cn2c3ccccc3c3c(OCC4CCCC4)cccc32)o1 | 2 (≈ 5.27 µM) | 1 (≈ 2.64 µM) | 2 (≈ 5.27 µM) | Active | 4 (≈ 10.5 µM) | 1 (≈ 2.64 µM) | 4 (≈ 10.5 µM) | 4 (≈ 10.5 µM) | 0.25 (≈ 0.659 µM) | 4 (≈ 10.5 µM) |  | 256 (≈ 675 µM) | 256 (≈ 675 µM) | < 3 | Active | Active
5 | CCOc1cccc2c1c1ccccc1n2Cc1nnc(S)o1 | 1 (≈ 3.07 µM) | 0.25 (≈ 0.768 µM) | 0.25 (≈ 0.768 µM) |  | 16 (≈ 49.2 µM) | 1 (≈ 3.07 µM) | 32 (≈ 98.3 µM) | 256 (≈ 787 µM) | 0.5 (≈ 1.54 µM) | 0.5 (≈ 1.54 µM) |  | 64 (≈ 197 µM) | 256 (≈ 787 µM) | < 3 | Active | Active
6 | CCCCOc1cccc2c1c1ccccc1n2Cc1nnc(S)o1 | 256 (≈ 724 µM) | 256 (≈ 724 µM) | 0.25 (≈ 0.707 µM) |  | 256 (≈ 724 µM) | 4 (≈ 11.3 µM) | 256 (≈ 724 µM) | 256 (≈ 724 µM) | 256 (≈ 724 µM) | 256 (≈ 724 µM) |  | 256 (≈ 724 µM) | 256 (≈ 724 µM) |  |  | 
7 | Fc1cccc(COc2cccc3c2c2ccccc2n3Cc2nnc(S)o2)c1 | 64 (≈ 158 µM) | 16 (≈ 39.5 µM) | 64 (≈ 158 µM) |  | 32 (≈ 78.9 µM) | 32 (≈ 78.9 µM) | 32 (≈ 78.9 µM) | 0.5 (≈ 1.23 µM) | 128 (≈ 316 µM) | 128 (≈ 316 µM) |  | 128 (≈ 316 µM) | 256 (≈ 631 µM) |  |  | 
8 | Sc1nnc(Cn2c3ccccc3c3c(OCc4ccc(Cl)cc4)cccc32)o1 | 256 (≈ 607 µM) | 4 (≈ 9.48 µM) | 256 (≈ 607 µM) |  | 256 (≈ 607 µM) | 256 (≈ 607 µM) | 256 (≈ 607 µM) | 256 (≈ 607 µM) | 256 (≈ 607 µM) | 256 (≈ 607 µM) |  | 256 (≈ 607 µM) | 256 (≈ 607 µM) |  |  | 
9 | CCn1c2ccccc2c2nnc(SCc3nnc(S)o3)nc21 | 256 (≈ 743 µM) | 256 (≈ 743 µM) | 256 (≈ 743 µM) |  | 256 (≈ 743 µM) | 256 (≈ 743 µM) | 256 (≈ 743 µM) | 256 (≈ 743 µM) | 256 (≈ 743 µM) | 256 (≈ 743 µM) |  | 256 (≈ 743 µM) | 256 (≈ 743 µM) |  |  | 
10 | Sc1nnc(COc2cccc3[nH]c4ccccc4c23)o1 | 2 (≈ 6.73 µM) | 4 (≈ 13.5 µM) | 64 (≈ 215 µM) |  | 64 (≈ 215 µM) | 2 (≈ 6.73 µM) | 4 (≈ 13.5 µM) | 64 (≈ 215 µM) | 128 (≈ 430 µM) | 1 (≈ 3.36 µM) |  | 64 (≈ 215 µM) | 256 (≈ 861 µM) |  |  | 
11 | CCCOc1cccc2c1c1ccccc1n2Cc1nnc(S)o1 | 2 (≈ 5.89 µM) | 1 (≈ 2.95 µM) | 0.25 (≈ 0.737 µM) |  | 2 (≈ 5.89 µM) | 2 (≈ 5.89 µM) | 4 (≈ 11.8 µM) | 4 (≈ 11.8 µM) | 4 (≈ 11.8 µM) | 4 (≈ 11.8 µM) |  | 128 (≈ 377 µM) | 256 (≈ 754 µM) |  |  | 
12 | Sc1nnc(COc2cccc3c2c2ccccc2n3Cc2nnc(S)o2)o1 | 32 (≈ 77.8 µM) | 32 (≈ 77.8 µM) | 128 (≈ 311 µM) |  | 64 (≈ 156 µM) | 32 (≈ 77.8 µM) | 64 (≈ 156 µM) | 128 (≈ 311 µM) | 64 (≈ 156 µM) | 32 (≈ 77.8 µM) |  | 32 (≈ 77.8 µM) | 128 (≈ 311 µM) |  |  | 
13 | C=CCn1c2ccccc2c2c(OCc3nnc(S)o3)cccc21 | 1 (≈ 2.96 µM) | 8 (≈ 23.7 µM) | 8 (≈ 23.7 µM) |  | 4 (≈ 11.9 µM) | 64 (≈ 190 µM) | 4 (≈ 11.9 µM) | 0.5 (≈ 1.48 µM) | 4 (≈ 11.9 µM) | 8 (≈ 23.7 µM) | Active | 256 (≈ 759 µM) | 256 (≈ 759 µM) |  |  | 
14 | CCCCCOc1cccc2c1c1ccccc1n2Cc1nnc(S)o1 | 256 (≈ 697 µM) | 256 (≈ 697 µM) | 128 (≈ 348 µM) |  | 256 (≈ 697 µM) | 256 (≈ 697 µM) | 256 (≈ 697 µM) | 256 (≈ 697 µM) | 256 (≈ 697 µM) | 256 (≈ 697 µM) |  | 256 (≈ 697 µM) | 256 (≈ 697 µM) |  |  | 
15 | Sc1nnc(COc2cccc3c2c2ccccc2n3CC2CC2)o1 | 0.5 (≈ 1.42 µM) | 1 (≈ 2.85 µM) | 16 (≈ 45.5 µM) | Active | 4 (≈ 11.4 µM) | 8 (≈ 22.8 µM) | 4 (≈ 11.4 µM) | 1 (≈ 2.85 µM) | 8 (≈ 22.8 µM) | 4 (≈ 11.4 µM) | Active | 256 (≈ 728 µM) | 256 (≈ 728 µM) |  |  | 
